SMILES strings stand for the structures.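 A five-concentration, 48-hour dose response in 96-well plates underlies each endpoint, interpolated linearly between surrounding concentrations. GI50 = concentration required for 50% inhibition of growth.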 Activity calls are given as the source filed them. No stated cut-off is given here; in the data, active = GI50 up to about 1.1 µM and inactive = higher.

Common to all, as to assay: NCI anticancer screen, dose series, 48 h
Assay [1] concerns TK-10.
Assay [2] has as its system SK-OV-3.
Assay [3] relates to MOLT-4.
Assay [4] has as its system UO-31.
In assay [5] the test system is ACHN.
The subject of assay [6] is HCC 2998.
The test system of assay [7] is Malme-3M.
Assay [8] concerns U-251.
For assay [9], the system named is HOP-62.
For assay [10], the system named is SN12C.
In assay [11] the test system is IGROV-1.
The test system of assay [12] is OVCAR-3.
Assay [13] relates to RXF 393.
Assay [14] deals with NCI-H460.
The test system of assay [15] is LOX IMVI.
The test system of assay [16] is M14.
Assay [17] has as its system SNB-75.
In assay [18] the test system is NCI-H226.
For assay [19], the system named is SF-539.

For the compound `CC#Cc1c(C#CC)c(OC)c2c(c1OC)C(=O)c1ccccc1C2=O`, the GI50 is 41.8 µM (inactive) in [1]; 34.9 µM (inactive) in assay [2]; > 100 µM (inactive) in [3]; 26 µM (inactive) in [4]; 14.3 µM (inactive) in [5]; > 100 µM (inactive) in [6]. Further, the GI50 in assay [7] was > 100 µM (inactive); in [8] it was 21.4 µM (inactive); in assay [9], 17.3 µM (inactive); in assay [10], > 100 µM (inactive); in assay [11], 73.6 µM (inactive); in [12], > 100 µM (inactive). Also, the GI50 is 10.7 µM (inactive) in assay [13], > 100 µM (inactive) in [14], > 100 µM (inactive) in assay [15] and 33.6 µM (inactive) in [16].
Take `CC(C)=CCOC(=O)C(C)=[N+]=[N-]`: the GI50 in assay [1] is > 100 µM (inactive); in assay [3], 59 µM (inactive); in assay [4], > 100 µM (inactive); in assay [17], > 100 µM (inactive); in assay [5] it was > 100 µM (inactive); in assay [6] it was > 100 µM (inactive). In addition, the GI50 in assay [7], in assay [8], in assay [9], in assay [10], in assay [11] and in assay [12] was > 100 µM (inactive) throughout. Further, the GI50 in assay [18], in assay [14] and in assay [15] was > 100 µM (inactive) throughout.
Consider `C/C(CN1C(=O)c2ccccc2C1=O)=N\NS(=O)(=O)c1ccc(F)cc1`, for which the GI50 in assay [1], in assay [2], in assay [3], in assay [4], in [19] and in assay [17] was > 100 µM (inactive) throughout. Also, the GI50 in [5], in assay [6], in assay [7], in [8], in [9] and in assay [10] was > 100 µM (inactive) in each case. For the same compound, the GI50 in [11], in assay [12], in assay [18], in assay [14], in [15] and in assay [16] was > 100 µM (inactive) throughout.
Regarding `CC(C)(C)OC1=C(OC(C)(C)C)C(O)(c2ccc(Cl)cc2)C1=O` (stereo not given), the GI50 in assay [1] is > 100 µM (inactive); in [2], > 100 µM (inactive); in [3], > 100 µM (inactive); in assay [4] it was > 100 µM (inactive); in assay [19], > 100 µM (inactive); in [17], 99.3 µM (inactive). For the same compound, the GI50 in assay [5], in assay [6], in [7], in assay [8], in assay [10] and in [11] was > 100 µM (inactive) in each case. Also, the GI50 in assay [12], in [13], in [14], in assay [15] and in [16] was > 100 µM (inactive) throughout.
In the case of `O=C1CSCc2sccc21`, the GI50 was > 100 µM (inactive) in [1]; > 100 µM (inactive) in assay [2]; > 100 µM (inactive) in assay [3]; > 100 µM (inactive) in assay [4]; > 100 µM (inactive) in assay [19]; 52.8 µM (inactive) in [17]. In addition, the GI50 in [5] is > 100 µM (inactive); in assay [6], 15 µM (inactive); in [8], > 100 µM (inactive); in [9], > 100 µM (inactive); in assay [10] it was > 100 µM (inactive); in assay [11], > 100 µM (inactive). Moreover, the GI50 in assay [12] was > 100 µM (inactive); in assay [18], > 100 µM (inactive); in assay [13], < 0.01 µM (active); in assay [14], > 100 µM (inactive); in assay [16], > 100 µM (inactive).
In the case of `CCN1CCC(O)(c2ccc(OC)cc2)C(C(=O)c2ccc(OC)cc2)C1` (stereo not given), the GI50 in [1] is 3.28 µM (inactive); in assay [2], > 100 µM (inactive); in [3], 17.5 µM (inactive); in assay [4], 18.4 µM (inactive); in assay [19] it was 17 µM (inactive); in assay [17], 16.4 µM (inactive). Further, the GI50 in [5] is 16.4 µM (inactive); in assay [6], 19.4 µM (inactive); in assay [8], 16.7 µM (inactive); in assay [9] it was > 100 µM (inactive); in assay [10] it was 20 µM (inactive); in assay [11], > 100 µM (inactive). Besides, the GI50 in assay [12] was 17.6 µM (inactive); in assay [18] it was > 100 µM (inactive); in assay [14], 24 µM (inactive); in assay [15] it was 20 µM (inactive); in assay [16], 15.7 µM (inactive).
Take `C=C1C[C@]23CCC4C(C)(C)C(=O)CC[C@]4(C)C2C[C@H]1C(O)C3=O` (stereo not given in full): the GI50 in assay [2], in assay [3], in assay [4], in assay [19], in [17] and in assay [5] was > 75 µM (inactive) throughout. In addition, the GI50 in assay [7], in [8], in assay [9], in assay [10], in assay [11] and in assay [12] was > 75 µM (inactive) in each case. Also, the GI50 in assay [18], in [13], in assay [15] and in [16] was > 75 µM (inactive) in each case.
Take `CN(C)CCn1c2ccccc2c2nc3cc4ccccc4cc3nc21`: the GI50 in [1] is 10.5 µM (inactive); in [2], 5.75 µM (inactive); in assay [3] it was 0.885 µM (active); in assay [4], 5.07 µM (inactive); in [5], 2.48 µM (inactive); in assay [6], 5.69 µM (inactive). Also, the GI50 in [7] was 10 µM (inactive); in assay [8], 6.79 µM (inactive); in assay [9], 3.07 µM (inactive); in [10], 4.61 µM (inactive); in assay [11], 2.08 µM (inactive); in assay [12], 10.6 µM (inactive). Also, the GI50 in [18] is 14 µM (inactive); in assay [13], 11 µM (inactive); in [14], 0.796 µM (active); in [15], 3.18 µM (inactive); in assay [16], 4.1 µM (inactive).
For the compound `CCC(Cc1cnc2nc(N)nc(N)c2n1)c1ccc(C(=O)NC(CCC(=O)O)C(=O)O)cc1` (stereo not given), the GI50 is > 100 µM (inactive) in [1]; 0.000264 µM (active) in [3]; 0.000382 µM (active) in assay [4]; 0.01 µM (active) in [19]; 0.329 µM (active) in assay [17]; 0.000456 µM (active) in assay [5]. The GI50 is 0.0127 µM (active) in assay [7]; 0.00515 µM (active) in assay [9]; 0.000551 µM (active) in assay [10]; 0.000315 µM (active) in assay [14]; 0.000247 µM (active) in assay [15]; 0.000899 µM (active) in assay [16].
